Some test systems named below: 786-0 renal; COLO 205 colon; EKVX NSCLC; HOP-62 NSCLC; K-562 leukemia; MDA-MB-231 breast; NCI-H23 lung; PC-3 prostate; TK-10 renal; UACC-62 melanoma.
What all share (assay): inhibition of tumour cell growth, NCI panel, 48 h

Several values for one entry are separate records, joined by “and”; a condition that tells them apart may be missing. Equal entries are not always repeated.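 48-hour exposure; five concentrations; linearly interpolated endpoints. Here, GI50 denotes the concentration required for 50% inhibition of growth. TGI: concentration producing complete growth inhibition.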

Results on seven compounds are retold here after PubChem BioAssay (NCI).

As to `COc1ccc(C2CC(c3cccc(Nc4ccnc5cc(Cl)ccc45)c3)=NN2C=O)cc1` (stereo not given), the GI50 was 0.665 µM in the experiment on 786-0 renal; 0.484 µM in the experiment on COLO 205 colon; 1.19 µM in the experiment on EKVX NSCLC; 0.747 µM with HOP-62 NSCLC; 0.33 µM in the experiment on K-562 leukemia; 1.7 µM in the experiment with MDA-MB-231 breast. Besides, the GI50 is 0.967 µM in the experiment with NCI-H23 lung, 0.577 µM in the experiment on PC-3 prostate, 0.882 µM in the experiment on TK-10 renal and 0.532 µM in the experiment with UACC-62 melanoma. Also, the TGI is 30.8 µM in the experiment on 786-0 renal; 2.95 µM in the experiment with COLO 205 colon; above 100 µM with EKVX NSCLC; 27.6 µM with HOP-62 NSCLC; above 100 µM with K-562 leukemia; above 66.4 µM in the experiment with MDA-MB-231 breast. Besides, the TGI in the experiment on NCI-H23 lung was above 81.6 µM; in the experiment with PC-3 prostate, above 100 µM; with TK-10 renal it was 7.86 µM; in the experiment on UACC-62 melanoma, 54.8 µM.
`CN(c1ncccc1CNc1nc(Nc2ccc3c(c2)CC(=O)N3)ncc1C(F)(F)F)S(C)(=O)=O`: the GI50 in the experiment on 786-0 renal was 3.02 µM and 2.51 µM; with COLO 205 colon, 0.601 µM and 1.11 µM; with EKVX NSCLC, 1.84 µM and 2.64 µM; in the experiment on HOP-62 NSCLC, 2.58 µM and 2.59 µM; in the experiment on K-562 leukemia, 2.97 µM and 3.45 µM; in the experiment with MDA-MB-231 breast, 2.01 µM and 2.33 µM. In addition, the GI50 was 1.79 µM and 2.16 µM in the experiment with NCI-H23 lung; 2.83 µM and 3 µM with PC-3 prostate; 1.87 µM and 1.75 µM with TK-10 renal; 1.4 µM in the experiment on UACC-62 melanoma. In addition, the TGI in the experiment with 786-0 renal was above 83.8 µM; in the experiment on COLO 205 colon it was 2.08 µM and 3.03 µM; in the experiment on EKVX NSCLC, 8.23 µM and > 10 µM; with HOP-62 NSCLC it was above 30.1 µM; with K-562 leukemia, above 100 µM; with MDA-MB-231 breast it was above 100 µM. In addition, the TGI is 4.88 µM and 6.35 µM in the experiment with NCI-H23 lung; above 35.9 µM with PC-3 prostate; 7.82 µM and > 10 µM with TK-10 renal; 3.62 µM in the experiment with UACC-62 melanoma.
`NS(=O)(=O)c1ccc(Nc2cc(-c3cccc(O)c3)[nH]n2)cc1`: the GI50 with 786-0 renal was above 25 µM; with COLO 205 colon, above 25 µM; in the experiment with EKVX NSCLC, above 25 µM; with HOP-62 NSCLC it was above 25 µM; with K-562 leukemia, above 25 µM; in the experiment with MDA-MB-231 breast it was 18 µM. For the same compound, the GI50 with NCI-H23 lung was above 25 µM; in the experiment with PC-3 prostate it was above 25 µM; in the experiment with TK-10 renal it was above 25 µM; in the experiment on UACC-62 melanoma it was above 24.2 µM. Besides, the TGI in the experiment on 786-0 renal, with COLO 205 colon, in the experiment with EKVX NSCLC, in the experiment on HOP-62 NSCLC, in the experiment on K-562 leukemia and in the experiment with MDA-MB-231 breast was above 25 µM each time. Moreover, the TGI in the experiment with NCI-H23 lung, in the experiment with PC-3 prostate, with TK-10 renal and in the experiment on UACC-62 melanoma was above 25 µM in each case.
As for `CCN(CCCN(C)C)Cc1cc(I)cc(C)c1O`, the GI50 is 18.6 µM with 786-0 renal; 18.9 µM with COLO 205 colon; 26.5 µM in the experiment with EKVX NSCLC; 17 µM in the experiment on HOP-62 NSCLC; 6.95 µM in the experiment on K-562 leukemia; 26.8 µM with MDA-MB-231 breast. Further, the GI50 in the experiment with NCI-H23 lung was 97.2 µM; in the experiment on PC-3 prostate, 21.5 µM; with TK-10 renal, 4.85 µM; with UACC-62 melanoma, 16.4 µM. Besides, the TGI in the experiment on 786-0 renal is 40 µM; in the experiment with COLO 205 colon, 36.8 µM; in the experiment with EKVX NSCLC, above 100 µM; with HOP-62 NSCLC, 34.4 µM; in the experiment on K-562 leukemia, 23.3 µM; in the experiment on MDA-MB-231 breast, 91 µM. Moreover, the TGI is above 100 µM in the experiment with NCI-H23 lung, 65.8 µM with PC-3 prostate, 22.6 µM in the experiment on TK-10 renal and 37.1 µM in the experiment with UACC-62 melanoma.
For the compound `O=C(Oc1cccc2cccnc12)c1cc2c(cc1Cl)SC(N(c1ccc(F)cc1)S(=O)(=O)c1ccc(Br)s1)=NS2(=O)=O`, the GI50 in the experiment with 786-0 renal was above 100 µM; in the experiment with COLO 205 colon it was 18.5 µM; with EKVX NSCLC, 22.5 µM; in the experiment on HOP-62 NSCLC, 50.8 µM; in the experiment with K-562 leukemia, 29.1 µM; in the experiment on MDA-MB-231 breast it was 23.6 µM. The GI50 in the experiment with NCI-H23 lung was 21.2 µM; in the experiment with PC-3 prostate, 21.5 µM; in the experiment on TK-10 renal, 38.1 µM; in the experiment on UACC-62 melanoma, 32.6 µM. Moreover, the TGI with 786-0 renal is above 100 µM; with COLO 205 colon, 50.8 µM; with EKVX NSCLC it was 64.1 µM; with HOP-62 NSCLC, above 100 µM; in the experiment on K-562 leukemia it was above 100 µM; in the experiment with MDA-MB-231 breast, above 100 µM. Besides, the TGI in the experiment on NCI-H23 lung was 59 µM; in the experiment on PC-3 prostate, 73.9 µM; in the experiment on TK-10 renal it was above 100 µM; in the experiment with UACC-62 melanoma, above 100 µM.
Take `COc1ccc(/C=C/C(=O)c2cc(OC)c(OC)c(OC)c2)cc1OCC(=O)Nc1nc2ccc(OC(F)(F)F)cc2s1`: the GI50 in the experiment on 786-0 renal is 2.26 µM; in the experiment on COLO 205 colon, 6.37 µM; with EKVX NSCLC, 5.11 µM; with HOP-62 NSCLC, 2.12 µM; in the experiment with K-562 leukemia, 0.438 µM; in the experiment with MDA-MB-231 breast, 2.01 µM. In addition, the GI50 in the experiment on NCI-H23 lung is 2.15 µM; in the experiment with PC-3 prostate, 3.14 µM; in the experiment on TK-10 renal, 2.08 µM; with UACC-62 melanoma it was 9.52 µM. For the same compound, the TGI was 4.97 µM with 786-0 renal; 39.8 µM in the experiment on COLO 205 colon; above 100 µM in the experiment on EKVX NSCLC; 4.33 µM with HOP-62 NSCLC; 10.2 µM in the experiment on K-562 leukemia; 5.01 µM in the experiment with MDA-MB-231 breast. Further, the TGI in the experiment with NCI-H23 lung was 6.2 µM; in the experiment on PC-3 prostate, 7.82 µM; in the experiment with TK-10 renal, 4.62 µM; in the experiment on UACC-62 melanoma, 42.1 µM.
With `CC(=O)c1ccc2c(c1)c1cc(C(C)=O)ccc1n2CCNC(C)C`, the GI50 with 786-0 renal was 0.456 µM; in the experiment on COLO 205 colon, 0.331 µM; in the experiment with EKVX NSCLC it was 0.548 µM; in the experiment on HOP-62 NSCLC, 0.717 µM; in the experiment with K-562 leukemia it was 0.332 µM; in the experiment on MDA-MB-231 breast it was 0.516 µM. The GI50 with NCI-H23 lung is 0.389 µM; in the experiment on PC-3 prostate it was 0.317 µM; in the experiment on TK-10 renal, 0.531 µM; in the experiment on UACC-62 melanoma, 0.25 µM. For the same compound, the TGI with 786-0 renal worked out at 3.32 µM; in the experiment on COLO 205 colon, 1.6 µM; with EKVX NSCLC, 4.97 µM; in the experiment with HOP-62 NSCLC, 4.63 µM; with K-562 leukemia, 1.81 µM; in the experiment on MDA-MB-231 breast, 3.16 µM. Besides, the TGI in the experiment on NCI-H23 lung amounted to 2.41 µM; in the experiment with PC-3 prostate, 1.76 µM; in the experiment with TK-10 renal it was 5.02 µM; in the experiment with UACC-62 melanoma, 0.78 µM.
